Laboratory results taken from patent publication US11802120B2, “Fused cyclic urea derivatives as CRHR2 antagonist” (RaQualia Pharma Inc., priority 2018, dated 2023).

Target: T1, human CRHR2-alpha (Homo sapiens, UniProt Q13324)
T1 sequence (Q13324 1-411): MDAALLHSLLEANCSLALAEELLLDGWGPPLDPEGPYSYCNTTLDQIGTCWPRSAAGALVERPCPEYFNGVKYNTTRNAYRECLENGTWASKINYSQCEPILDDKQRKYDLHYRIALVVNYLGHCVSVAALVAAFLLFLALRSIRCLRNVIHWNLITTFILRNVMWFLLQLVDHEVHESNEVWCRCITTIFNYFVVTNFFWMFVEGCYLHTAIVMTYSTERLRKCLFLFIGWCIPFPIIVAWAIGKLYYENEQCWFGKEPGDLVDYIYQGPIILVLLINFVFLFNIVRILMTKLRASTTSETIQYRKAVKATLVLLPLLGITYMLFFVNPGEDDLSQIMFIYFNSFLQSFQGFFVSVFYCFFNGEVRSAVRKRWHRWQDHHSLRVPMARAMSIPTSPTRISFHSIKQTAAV
Test: cAMP functional assay for human CRHR2 (LANCE Ultra cAMP, TR-FRET)
Format: cell-based
Conditions: CHO-K1 cells expressing human CRHR2-alpha, agonist human urocortin2 at EC80, cAMP; read-out: IC50 against CRHR2
Procedure, shortened: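 CHO-K1 cells stably expressing each receptor, serum-starved and cryopreserved, were preincubated with compound 30 min at 25° C in HBSS buffer with 0.5 mM IBMX, pH 7.4, then stimulated 30 min with EC80 agonist (urocortin2 for CRHR2, CRF for CRHR1). cAMP read by TR-FRET; IC50 from percent-inhibition curves.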

Compound	IC50 [nM]
Cc1ncc(Cl)cc1C(=O)N[C@H]1CC[C@H](Cn2c(=O)n(-c3ccc4c(N)n[nH]c4c3)c3ccccc32)CC1 [Example 197, N-((1r,4r)-4-((3-(3-amino-1H-indazol-6-yl)-2-oxo-2,3-dihydro-1H-benzo[d]imidazol-1-yl)methyl)cyclohexyl)-5-chloro-2-methylnicotinamide]	< 300
Cc1ncc(Cl)cc1C(=O)N[C@H]1CC[C@H](Cn2c(=O)n(-c3ccc4c(N)noc4c3)c3ccccc32)CC1 [Example 198, N-((1r,4r)-4-((3-(3-aminobenzo[d]isoxazol-6-yl)-2-oxo-2,3-dihydro-1H-benzo[d]imidazol-1-yl)methyl)cyclohexyl)-5-chloro-2-methylnicotinamide]	< 300
CNC(=O)c1cc(C)c(-n2c(=O)n(C[C@H]3CC[C@H](NC(=O)c4cc(Cl)cnc4C)CC3)c3ccccc32)cn1 [Example 199, 5-(3-(((1r,4r)-4-(5-chloro-2-methylnicotinamido)cyclo-hexyl)methyl)-2-oxo-2,3-dihydro-1H-benzo[d]imidazol-1-yl)-N,4-dimethylpicolinamide]	< 300
Cc1ncc(Cl)cc1C(=O)N[C@H]1CC[C@H](Cn2c(=O)n(-c3ccc4ncsc4c3)c3ncccc32)CC1 [Example 200, N-((1r,4r)-4-((3-(benzo[d]thiazol-6-yl)-2-oxo-2,3-dihydro-1H-imidazo[4,5-b]pyridin-1-yl)methyl)cyclohexyl)-5-chloro-2-methylnicotinamide]	< 300
Cc1ncc(Cl)cc1C(=O)N[C@H]1CC[C@H](Cn2c(=O)n(-c3ccc(-c4cccnc4)nc3)c3ccccc32)CC1 [Example 201, N-((1r,4r)-4-((3-([2,3′-bipyridin]-5-yl)-2-oxo-2,3-dihydro-1H-benzo[d]imidazol-1-yl)methyl)cyclohexyl)-5-chloro-2-methylnicotinamide]	< 300
Cc1ncc(Cl)cc1C(=O)N[C@H]1CC[C@H](Cn2c(=O)n(-c3ccc(-c4cnco4)nc3)c3ccccc32)CC1 [Example 202, 5-chloro-2-methyl-N-((1r,4r)-4-((3-(6-(oxazol-5-yl)pyridin-3-yl)-2-oxo-2,3-dihydro-1H-benzo[d]imidazol-1-yl)methyl)cyclo-hexyl)nicotinamide]	< 300
Cc1ncc(Cl)cc1C(=O)N[C@H]1CC[C@H](Cn2c(=O)n(-c3ccc(-c4cn[nH]c4)nc3)c3ccccc32)CC1 [Example 203, N-((1r,4r)-4-((3-(6-(1H-pyrazol-4-yl)pyridin-3-yl)-2-oxo-2,3-dihydro-1H-benzo[d]imidazol-1-yl)methyl)cyclohexyl)-5-chloro-2-methylnicotinamide]	< 300
Cc1ncc(Cl)cc1C(=O)N[C@H]1CC[C@H](Cn2c(=O)n(-c3ccc(Br)cc3C#N)c3ccccc32)CC1 [Example 204, N-((1r,4r)-4-((3-(4-bromo-2-cyanophenyl)-2-oxo-2,3-dihydro-1H-benzo[d]imidazol-1-yl)methyl)cyclo-hexyl)-5-chloro-2-methylnicotinamide]	< 300
Cc1ncc(Cl)cc1C(=O)N[C@H]1CC[C@H](Cn2c(=O)n(-c3ccc4c(C)n[nH]c4c3)c3ccccc32)CC1 [Example 205, 5-chloro-2-methyl-N-((1r,4r)-4-((3-(3-methyl-1H-indazol-6-yl)-2-oxo-2,3-dihydro-1H-benzo[d]imidazol-1-yl)methyl)cyclohexyl)nicotinamide]	< 300
Cc1ncc(Cl)cc1C(=O)N[C@H]1CC[C@H](Cn2c(=O)n(-c3ccc4c(c3)ncn4C)c3ccccc32)CC1 [Example 206, 5-chloro-2-methyl-N-((1r,4r)-4-((1′-methyl-2-oxo-1′H-[1,5′-bibenzo[d]imidazol]-3(2H)-yl)methyl)cyclohexyl)nico-tinamide]	< 300
Cc1ncc(Cl)cc1C(=O)N[C@H]1CC[C@H](Cn2c(=O)n(-c3ccc4c(Cl)nn(C)c4c3)c3ccccc32)CC1 [Example 208, 5-chloro-N-((1r,4r)-4-((3-(3-chloro-1-methyl-1H-indazol-6-yl)-2-oxo-2,3-dihydro-1H-benzo[d]imidazol-1-yl)methyl)cyclohexyl)-2-methylnico-tinamide]	< 300
